This is an account of results in US7348163B2, “Human GABAB receptor 1 promoters” (AstraZeneca AB, priority 1999, dated 2008).

For the assay, the system named is human GABAB receptor 1 promoter P1b. Put plainly: Luciferase reporter assay of GABAB receptor 1 promoter P1b activity (pAM440) in transfected ND7/23 cells. The assay is classed as cell-based. The conditions noted are these: Forskolin 10 μM + 1-methyl-3-isobutylxanthine 0.125 mM, 24 h. Here is the method:
Reporter constructs containing R1a and R1b promoter fragments were generated by PCR using plasmid pAM 364, containing genomic sequence covering the promoter regions, as template. PCR reaction was performed by standard procedure (Perkin Elmer). Briefly, an initial denaturation at 95° C. for 4 min was followed by 35 cycles of denaturation at 95° C. for 1 min, annealing at 60° C. for 1 min, elongation at 72° C. for 1 min and finally a 7 min elongation at 72° C. […]
To determine putative promoter activity, the reporter gene constructs were introduced into mammalian cells by transfection. […] Luciferase activity in cell extracts was measured in a Luciferase Assay System (Promega), where 40 μl of cell extracts was added to a 96-well plate (Maxisorp, Nunc) and mixed with 50 μl of luciferase substrate. Luciferase activity was then measured in a LUMIstar (BMG Lab technologies). As internal control for transfection efficiency, β-Galactosidase (β-Gal.) activity was measured in 96-well plate (Maxisorp, Nunc) using a β-Galactosidase Enzyme Assay (Promega) according to suppliers protocol.
ND7/23 cells (4×10^5) were transfected with promoter-luciferase constructs as described above. […] After incubation, cells were harvested and luciferase activity measured. Luciferase activity, minus background, is shown as arbitrary light units measured in 40 μl of cell extracts. […]
(In general: In a reporter assay the amount or activity of a reporter protein is the signal.)

SMILES strings stand for the structures.

Take `CC(C)Cn1c(=O)n(C)c(=O)c2[nH]cnc21` [IBMX, 1-methyl-3-isobutylxanthine]: the “further enhancement of forskolin induced expression” value is “does not show a significant difference”.
